The values that follow come from US20100099614A1, “Antimicrobial Peptides and Methods of Use” (priority 2008, published 2010).

Data set [1] can be described thus: Helical structure by circular dichroism spectroscopy. Format: physicochemical. As to conditions: 222 nm. The method, then: The mean residue molar ellipticities of peptides were determined by circular dichroism (CD) spectroscopy, using a Jasco J-810 spectropolarimeter (Easton, Md.) at 5° C. under benign (non-denaturing) conditions (50 mM NaH2PO4/Na2HPO4/100 mM KCl, pH 7.0), hereafter referred to as benign buffer, as well as in the presence of an α-helix inducing solvent, 2,2,2-trifluoroethanol, TFE, (50 mM NaH2PO4/Na2HPO4/[…], pH 7.0 buffer/50% TFE). A 10-fold dilution of an approximately […] stock solution of the peptide analogs was loaded into a 0.1 cm quartz cell and its ellipticity scanned from 195 to 250 nm. The values of molar ellipticities of the peptide analogs at a wavelength of 222 nm were used to estimate the relative α-helicity of the peptides.

For data set [2], the system named is Interleukin-6 (IL-6). Kind of data set: Cytokine assay, stimulation of peripheral blood mononuclear cells, ELISA. Format: cell-based, human. The method, then: (§1) Isolation of peripheral blood mononuclear cells (PBMCs) from 5 healthy individuals was performed as described elsewhere (108). Briefly, venous blood was drawn into 10 ml tubes containing 0.2 mg of EDTA (Monoject's-Hertogenbosch, NL). The PBMC fraction was obtained by density centrifugation of blood using Ficoll-Paque (Pharmacia Biotech AB, Sweden). […] The PBMCs were incubated in 96-well tissue culture plates (Greiner, Alphen, NL) at a concentration of 5×10^5 cells per well in a total volume of 200 μl, in the presence or absence of a set of stimuli in different experiments. […] After 24 h of incubation, the supernatants were collected and stored at -80° C. until analysis. Interleukin-6 (IL-6) and tumor necrosis factor (TNF) were measured by ELISA according to the manufacturer's protocol ([…], CLB, Amsterdam, NL). […] Agilent Technologies) with a linear AB gradient (0.2% acetonitrile/min) at a flow rate of 2 ml/min, where mobile phase A was 0.1% aqueous TFA in water and B was 0.1% TFA in acetonitrile. The purity of peptides was verified by analytical RP-HPLC. The peptides were further characterized by electrospray mass spectrometry and amino acid analysis.
(An ELISA detects its analyte on a solid surface through an enzyme-linked reagent.)

The test system of data set [3] is tumor necrosis factor (TNF). The description is as above. Format: cell-based, human. As to the method:
as §1

Data set [4] concerns Gram-negative bacteria. Kind of data set: Antibacterial activity (MIC), microtiter dilution. Format: cell-based. As to the method: MICs were determined by a standard microtiter dilution method in Mueller Hinton Broth (MHB). Serial dilutions of the 10× compound were added to the microtiter plates in a volume of 10 μL followed by 90 μL of bacteria for an inoculum of 5×10^5 colony-forming units (CFU)/mL. The plates were incubated at 37° C. for 24 h, and the MICs were determined as the lowest peptide concentration that inhibited growth. […]
Alternatively; minimal inhibitory concentrations were determined using a standard microtiter dilution method in a Mueller-Hinton (MH) medium. Briefly, cells were grown overnight at 37° C. in MH broth and diluted in the same medium. Serial dilutions of the peptides were added to the microtiter plates in a volume of 100 μl followed by 10 μl of bacteria for an initial cell concentration of 1×10^5 CFU/ml. Plates were incubated at 37° C. for 24 hours and MICs determined as the lowest peptide concentration that inhibited growth.

The subject of data set [5] is Mycobacterium tuberculosis strain H37Rv.
Data set [6] deals with Ascomycota fungi. As to conditions: Ascomycota fungi.
In data set [7] the test system is human red blood cells. Kind of data set: Hemolytic activity (MHC50/HC50), 18 h microtiter dilution. Format: cell-based. As to conditions: red cells of human, 18 h. The method, then: Hemoglobin release was determined spectrophotometrically at 570 nm. […] MHC50 was determined by plot the concentration-lysis format.
Data set [8] in a line: Peptide hydrophobicity by RP-HPLC retention. Format: physicochemical. As to conditions: pH 2, room temperature. The method, then: Peptide Synthesis and Purification—Syntheses of the peptides were carried out by solid-phase peptide synthesis using t-butyloxycarbonyl chemistry and MBHA (4-methylbenzhydrylamine) resin (0.97 mmol/g), followed by cleavage of the peptide from the resin as described previously (117-119). However, it is understood in the art that there are other suitable instruments and methods for automated or manual peptide synthesis that could be employed to produce the peptides described herein. Peptide purification was performed by reversed-phase high-performance liquid chromatography (RP-HPLC) on a Zorbax 300 SB-C8 column (250×9.4 mm I.D.; 6.5 μm particle size, 300 Å pore size; Agilent Technologies, Little Falls, Del.) with a linear AB gradient (0.1% acetonitrile/min) at a flow rate of 2 mL/min, where eluent A was 0.2% aqueous trifluoroacetic acid (TFA), pH 2, and eluent B was 0.2% TFA in acetonitrile, where the shallow 0.1% acetonitrile/min gradient started 12% below the acetonitrile concentration required to elute the peptide on injection of analytical sample using a gradient of 1% acetonitrile/min (113). The purity of the peptides was verified by analytical RP-HPLC as described below and further characterized by mass spectrometry and amino acid analysis. Crude and purified peptides were analyzed on an Agilent 1100 series liquid chromatograph. Runs were performed on a Zorbax 300 SB-C8 column (150×2.1 mm I.D.; 5 μm particle size, 300 Å pore size) from Agilent Technologies using a linear AB gradient (1% acetonitrile/min) and a flow rate of 0.25 mL/min, where eluent A was 0.2% aqueous TFA, pH 2, and eluent B was 0.2% TFA in acetonitrile.
Analytical RP-HPLC of Peptides—Peptides were analyzed on an Agilent 1100 series liquid chromatograph (Little Falls, Del.). Runs were performed on a Zorbax 300 SB-C8 column (150×2.1 mm I.D.; 5 μm particle size, 300 Å pore size) from Agilent Technologies using linear AB gradient (1% acetonitrile/min) and a flow rate of 0.25 ml/min, where solvent A was 0.05% aqueous TFA, pH 2 and solvent B was 0.05% TFA in acetonitrile. Temperature profiling analyses were performed in 3° C. increments, from 5° C. to 80° C.

Data set [9] has as its system Gram-positive bacteria.
For data set [10], the system named is Zygomycota fungi.
The subject of data set [11] is Mycobacterium tuberculosis strain H37Rv. Kind of data set: microbe, parasite or virus in culture.
For data set [12] the following is noted: 50% trifluoroethanol (TFE), 5° C.; cited from earlier work.
Data set [13] deals with Peptide D5, D-(V13K, A12L, A20L, A23L, V16K). Kind of data set: RP-HPLC temperature profiling at pH 2, maximal retention time difference against control peptide C; self-association.
For data set [14], the target named is Peptide D1, D-(V13K). The data set is described as above.
Data set [15] deals with the molecule itself. Kind of data set: RP-HPLC temperature profiling, 5 to 80 C, pH 2 (self-association). The method, then:
Thus, if the self-association ability of a peptide in aqueous media is too strong (e.g., forming stable folded dimers through interaction of their non-polar faces) this could decrease the ability of the peptide to dissociate to monomer where the dimer cannot effectively pass through the capsule and cell wall to reach the membrane. The ability of the peptides in the present study to self-associate was determined by the technique of RP-HPLC temperature profiling at pH 2 (30,29,42). The reason pH 2 is used to determine self-association of cationic AMPs is that highly positively charged peptides are frequently not eluted from reversed-phase columns at pH 7 due to non-specific binding to negatively charged silanols on the column matrix. This is not a problem at pH 2 since the silanols are protonated (i.e., neutral) and non-specific electrostatic interactions are eliminated. At pH 2, the interactions between the peptide and the reversed-phase matrix involve ideal retention behavior, i.e., only hydrophobic interactions between the preferred binding domain (nonpolar face) of the amphipathic molecule and the hydrophobic surface of the column matrix are present (39). […]

[16] abbreviates: peptide concentration 0.01 μg/ml.
Setting [17] is: peptide concentration 100 μg/ml.

“And” between values parts separate entries of the source, which are not always exact repeats. Identical values can stand only once. Like-named read-outs stand apart in the source and are kept apart here.

On to `CC[C@@H](C)[C@@H](NC(=O)[C@@H](CC(C)C)NC(=O)[C@@H](CCCCN)NC(=O)[C@@H](CC(C)C)NC(=O)[C@@H](CC(C)C)NC(=O)[C@H](NC(=O)[C@@H](Cc1c[nH]cn1)NC(=O)[C@@H](CC(C)C)NC(=O)[C@@H](CCCCN)NC(=O)[C@H](NC(=O)[C@@H](CCCCN)NC(=O)[C@@H](CCCCN)NC(=O)[C@@H](CC(C)C)NC(=O)[C@@H](CO)NC(=O)[C@@H](CCCCN)NC(=O)[C@@H](Cc1ccccc1)NC(=O)[C@H](NC(=O)[C@@H](CCCCN)NC(=O)[C@@H](CC(C)C)NC(=O)[C@@H](Cc1ccccc1)NC(=O)[C@@H](CO)NC(=O)[C@@H](CCCCN)NC(=O)[C@@H](Cc1c[nH]c2ccccc12)NC(=O)[C@@H](CCCCN)NC(C)=O)[C@H](C)O)[C@H](C)O)[C@H](C)O)C(=O)N[C@H](CO)C(=O)N[C@H](CO)C(N)=O` [D5], for which, in [1] (benign buffer containing 50% trifluoroethanol), the “50% TFE [θ]222 (mean residue molar ellipticity)” value is 35,500 deg cm^2/dmol. The “Benign [θ]222 (mean residue molar ellipticity)” value in [1] (benign conditions (100 mM KCl, 50 mM NaH2PO4/Na2HPO4, pH 7.0)) is listed as 3,700 deg cm^2/dmol. Further, the “IL-6 Exp 1” value in data set [2] (setting [16]), in data set [2] (peptide concentration 1 μg/ml) and in data set [2] (setting [17]) was less than 3 pg/mL throughout. Also, the “IL-6 Exp 2” value in data set [2] (setting [16]) and in [2] (setting [17]) was less than 3 pg/mL throughout. In addition, the “TNF Exp 1” value in data set [3] (setting [16]) and in [3] (peptide concentration 1 μg/ml) was less than 0.015 ng/mL in each case. The “TNF Exp 2” value in data set [3] (setting [16]) and in data set [3] (peptide concentration 1 μg/ml) was less than 0.015 ng/mL each time. Further, the “increase in antibacterial activity compared to D4” value in data set [4] (gram-negative bacteria) and in data set [9] (gram-positive bacteria) was 2 fold in each case. The “Fold improvement in antimicrobial activity (geometric mean data) compared to that of D4, Gram-negative bacteria” value in [4] (relative to D4) came out at 2.2 fold. The “MIC GM (geometric mean of the MIC values), Gram-negative bacteria” value in [4] (six Gram-negative strains, 128 μg/mL used where no activity at 64 μg/mL) came to 10.1 mg/L. Further, the “reduction in viability (CFU/ml)” value in data set [5] (100 μg/ml (31.7 μM), 7 days incubation vs day 0) is recorded as “about 100 fold”. Moreover, in [5] (further experiments, relative to D4), the “Anti-tuberculosis activity to H37Rv strain Fold (compared to D4)” value stood at 4.9 fold. For the same molecule, in data set [6], the “antifungal activity relative to D4” value is listed as “maintained the same level”. Moreover, the “Hemolytic activity HC50” value in data set [7] was found to be 14.9 µM. Besides, the “Hydrophobicity tR (retention time in RP-HPLC)” value in data set [8] is 80.4 min. Also, the “MIC GM (geometric mean of the MIC values), Gram-positive bacteria” value in data set [9] (24 h) is 9.0 mg/L. Also, the “Fold improvement in antimicrobial activity (geometric mean data) compared to that of D4, Gram-positive bacteria” value in [9] (relative to D4) was found to be 1.8 fold. Further, the “increase in antifungal activity relative to D4” value in data set [10] (Zygomycota fungi) stood at 16 fold. Further, the “Fold improvement in antifungal activity (geometric mean data) compared to that of D4, Zygomycota fungi” value in data set [10] (relative to D4) was 16.0 fold.
For the molecule `CO[C@H]1/C=C/O[C@@]2(C)Oc3c(C)c(O)c4c(O)c(c(/C=N/N5CCN(C)CC5)c(O)c4c3C2=O)NC(=O)/C(C)=C\C=C\[C@H](C)[C@H](O)[C@@H](C)[C@@H](O)[C@@H](C)[C@H](OC(C)=O)[C@@H]1C` [rifampin], the MIC in data set [11] (168 h, read-out: Anti-tuberculosis activity MIC) was 0.033 µM and 0.027 µg/mL; in data set [11] (read-out: Anti-tuberculosis activity to H37Rv strain MIC), 0.033 µM and 0.027 µg/mL.
Regarding “Ac-ELEKGGLEGEKGGKELEK-amide (Ac-ELEKGGLEGEKGGKELEK-NH2) [peptide C]”, the “[θ]222” value in data set [12] is reported as −3,950.
In data set [13], KWKSFLKTFKSLKKTKLHTLLKLISS (all residues D-amino acids; N-terminal Nα-acetyl; C-terminal amide) [Peptide D5, D-(V13K, A12L, A20L, A23L, V16K)] returned a PA (dimerization / self-association parameter) of 4.35.
In turn, KWKSFLKTFKSAKKTVLHTALKAISS (all residues D-amino acids; N-terminal Nα-acetyl; C-terminal amide) [Peptide D1, D-(V13K)] showed a PA (dimerization / self-association parameter) in data set [14] of 2.78.
Turning to Ac-ELEKGGLEGEKGGKELEK-NH2 [Control peptide C (random coil peptide)], the binding result in [15] was “no binding”.
